Laboratory results from PubChem BioAssay (NCI).
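Following 48 hours of exposure in 96-well plates, responses at five concentrations were used to interpolate endpoints linearly. TGI is the concentration that stops growth completely.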

What was measured:
Assay in all cases: growth of human tumour cells (NCI), 48 h
A549 NSCLC = system: A549 NSCLC
COLO 205 colon = system: COLO 205 colon
HCC-2998 colon = system: HCC-2998 colon
HCT-116 colon = system: HCT-116 colon
HOP-62 NSCLC = system: HOP-62 NSCLC
K-562 leukemia = system: K-562 leukemia
LOX IMVI melanoma = system: LOX IMVI melanoma
M14 melanoma = system: M14 melanoma
MALME-3M melanoma = system: MALME-3M melanoma
MOLT-4 leukemia = system: MOLT-4 leukemia
SF-268 CNS = system: SF-268 CNS
SF-539 CNS = system: SF-539 CNS
SK-MEL-2 melanoma = system: SK-MEL-2 melanoma
SK-MEL-28 melanoma = system: SK-MEL-28 melanoma
SN12C renal = system: SN12C renal
SW-620 colon = system: SW-620 colon
UACC-62 melanoma = system: UACC-62 melanoma
PC-3 prostate = system: PC-3 prostate
MDA-MB-435 = system: MDA-MB-435

Structure (SMILES)	TGI (A549 NSCLC) [µM]	TGI (COLO 205 colon) [µM]	TGI (HCC-2998 colon) [µM]	TGI (HCT-116 colon) [µM]	TGI (HOP-62 NSCLC) [µM]	TGI (K-562 leukemia) [µM]	TGI (LOX IMVI melanoma) [µM]	TGI (M14 melanoma) [µM]	TGI (MALME-3M melanoma) [µM]	TGI (MOLT-4 leukemia) [µM]	TGI (SF-268 CNS) [µM]	TGI (SF-539 CNS) [µM]	TGI (SK-MEL-2 melanoma) [µM]	TGI (SK-MEL-28 melanoma) [µM]	TGI (SN12C renal) [µM]	TGI (SW-620 colon) [µM]	TGI (UACC-62 melanoma) [µM]	TGI (PC-3 prostate) [µM]	TGI (MDA-MB-435) [µM]
COc1ccc(-c2nc3c(nc2-c2ccc(OC)cc2)N(C)S(=O)(=O)N=C3N)cc1	> 100	32.5	> 100	30.7	> 100	> 100	29.9	> 100	58.8	48.5	> 100	51.5	57.7	> 100	> 100	> 100	94.3	–	–
CC1=C/C(=C2/N=C(N(C)C)SS2)C(C)=N1	> 100	> 100	> 100	> 100	> 100	> 100	> 100	> 100	> 100	> 100	> 100	> 100	–	> 100	> 100	> 100	–	–	–
COc1cc2cc3c4c(cc(OC)c(OC)c4c2cc1OC)CCN3C(=O)CCC(=O)O	> 100	> 100	> 100	> 100	> 100	> 100	> 100	> 100	> 100	> 100	> 100	> 100	> 100	> 100	> 100	> 100	> 100	–	–
O=C1CCCC2=C1CC1=C(CCCC1=O)N2c1cccc([N+](=O)[O-])c1	> 100	–	> 100	–	–	> 100	> 100	> 100	–	> 100	> 100	> 100	–	> 100	> 100	> 100	> 100	> 100	–
Cc1c(-c2ccc(O)c(O)c2)oc(=O)c2c(O)cccc12	> 100	30.1	22.1	20	34.5	28.1	–	20.7	26.9	> 100	50.7	48.4	28	–	19.5	61.2	–	52.1	12.3
COc1cc2cc(C(=O)N3CC(CCl)c4c3cc(O)c3ccccc43)[nH]c2c(OC)c1OC (stereo not given)	> 50	–	< 0.005	5.85	–	> 50	0.625	< 0.005	< 0.005	0.153	10.8	< 0.005	< 0.005	–	–	> 50	0.291	–	–
CCN(CC)CC(=O)Nc1ccc2c(c1)C(=O)c1ccc(NC(=O)CN(CC)CC)cc1C2=O	> 100	54.1	> 100	30.5	74.1	67.8	34.5	36.8	–	81.5	82.7	30.9	> 100	> 100	> 100	69.8	> 100	–	–
CN=C(NC)N(C)c1nc(=[N+](C)C)ss1	> 100	–	> 100	> 100	> 100	> 100	> 100	> 100	–	> 100	> 100	> 100	> 100	> 100	> 100	> 100	> 100	–	–
NC(C(=O)OC(=O)c1ccccc1)C(=O)OC(=O)c1ccccc1	> 100	> 100	–	> 100	> 100	> 100	> 100	> 100	> 100	> 100	> 100	> 100	> 100	> 100	> 100	> 100	–	> 100	> 100
CC#CCCCC1(C)CCCNC1=S (stereo not given)	> 10	–	–	–	–	> 10	> 10	> 10	> 10	> 10	> 10	> 10	> 10	–	> 10	> 10	> 10	> 10	> 10
CN(C)Cc1cc(C(=O)/C=C/c2ccc(F)cc2)cc(CN(C)C)c1O	> 100	–	–	27	58.5	62.5	20.7	27.4	36.5	53.8	63.9	44.4	–	> 100	> 100	75.5	8.98	> 100	38.9
O=S(=O)(O)c1ccccc1N=Nc1ccc(N=Nc2c(O)ccc3ccccc23)c(S(=O)(=O)O)c1	> 100	> 100	–	> 100	> 100	> 100	–	> 100	> 100	> 100	> 100	–	> 100	> 100	> 100	> 100	> 100	> 100	> 100
